Laboratory results from a melting point compilation (Tetko et al.; mined from patent text by program, amines drawn as free bases though some values may be those of a salt).

With `N#Cc1ccc(C2=Nc3ccc(-c4ccccc4F)cc3NC(=O)C2)s1` the melting point was > 250 °C.
Molecule `COc1cc(-c2csc(C(N)=O)n2)cc(Cl)c1OC` has a melting point of 178 to 180 °C.
`O=[N+]([O-])C(F)(CO)CO` showed a melting point of 86 to 87 °C.
For `CCN(CC)C(=O)C1CCCN(C(=O)CN(C(=O)CNC(=O)Nc2cccc(C)c2)c2ccccc2)C1` (racemic), the melting point was 156 °C.
In the case of `COc1cc(OC)nc(Oc2cccc(C(F)(F)F)c2C(=O)O)n1`, the melting point is reported as 151 to 153 °C.
In the case of `COc1cc(OC)nc(NC(=O)NS(=O)(=O)Cc2ccccc2-c2nnc(SC)o2)n1`, the melting point is reported as 174 to 177 °C.
In the case of `N#Cc1cncc(-c2ccc3c(c2)C2(CCCCC2)C(=O)N3)c1`, the melting point is reported as 232 to 234 °C.
For `CCCCc1oc2ccccc2c1-c1ncc(-c2ccc3cc(OCC(=O)O)ccc3c2)o1`, the melting point was 214 to 216 °C.
In the case of `CS(=O)(=O)c1ccc(Oc2ccc(Cc3ccccc3)cc2)cc1`, the melting point is reported as 109 to 110 °C.
Work on `COc1ccc(CC#N)cc1S(N)(=O)=O` yielded a melting point of 173 to 177 °C.
`Cc1cccc2c1N(CC(=O)c1ccccc1[N+](=O)[O-])C(=O)C(NC(=O)Nc1cccc(-c3nnn[nH]3)c1)N=C2c1ccccc1F` (stereo not given) gave a melting point of 192 to 197 °C.
`CC(C)n1nc(C#Cc2ccccc2F)ccc1=O` showed a melting point of 84.5 to 86 °C.
For `CN(C)N=Nc1ccsc1C(N)=O`, the melting point was 168 to 170 °C.
In the case of `CCn1ncc2c(-c3cncc(C)c3)c(CCC(=O)O)c(-c3ocnc3C)nc21`, the melting point is reported as 184 to 186 °C.
For `COc1cc(OC)cc(N2CCN(C(=S)Nc3cc(C(C)=O)c(C)nc3OC)CC2)c1`, the melting point was 167 to 169 °C.
For `CC(=O)NC(Cc1ccc([N+](=O)[O-])cc1)C(=O)O` (stereo not given), the melting point was 165 to 166 °C.
`COc1cc(COc2nn(-c3ccccc3)cc2CC#N)ccc1OCc1nc(-c2ccco2)oc1C` showed a melting point of 153 to 154 °C.
With `COc1cccc(C2C(C(=O)c3ccc(C)cc3)=C(O)C(=O)N2c2ccc(C)nn2)c1` (stereo not given) the melting point was 265 °C.
Work on `CCCCN(CCCC)c1ccc(C=CC2=C(C#N)C(=C(C#N)C#N)OC2(C)C(F)(F)F)c(OC)c1` (stereo not given) yielded a melting point of 211 to 213 °C.
With `CCOC(=O)c1ccc(NCc2ccc(Cl)s2)cc1` the melting point was 108 to 109 °C.
In the case of `COC(=O)C(Sc1ccc(C)cc1)(C1=NCCCS1)[N+](=O)[O-]` (stereo not given), the melting point is reported as 85 to 89 °C.
With `COC(=O)C1=Cc2cc(-c3ccc4c(c3)OCO4)ccc2S(=O)(=O)CC1` the melting point was 185 to 187 °C.
For `COc1cc(C(=O)NS(=O)(=O)c2ccccc2C)ccc1Cc1c(Cl)n(C)c2cc(Cl)c(CC(C)NC(=O)N(C)C)cc12` (stereo not given), the melting point was 136 to 146 °C.
Work on `CC(=O)C1CCC2C3CCC4CC(O)(Cc5ccccc5)CCC4(C)C3CCC12C` (stereo not given) yielded a melting point of 133 to 141 °C.
Molecule `CON=C(C)C(C)=NOc1ccccc1C(=NOC)C(=O)OC` has a melting point of 93 to 94 °C.
`O=C(Cc1c[nH]c2ccccc12)Nc1ccccc1C(=O)O` gave a melting point of 205 to 207 °C.
In the case of `CCOC(=O)c1c(O)c2cc(F)ccc2n(C)c1=O`, the melting point is reported as 131 °C.
`C=C(Cc1ccccc1)C(=O)NCC(=O)O` gave a melting point of 82 °C.
In the case of `Cc1ncc(-c2ccccc2)c(-c2ccc3c(c2)NC(=O)CO3)n1`, the melting point is reported as 229 °C.
In the case of `Nc1nccc2ccc(OS(=O)(=O)C(F)(F)F)cc12`, the melting point is reported as 115 to 118 °C.
Molecule `CNc1cc(-c2ccc(Cl)cc2)nc2nn(C)cc12` has a melting point of 182 to 184 °C.
`Cc1ccn2c(C)c(-c3ccc4c(c3)N(C)C(=O)CS4)nc2c1` gave a melting point of 231 °C.
With `O[C@@H]1CCCC[C@H]1Nc1ccccc1` (relative stereo) the melting point was 57 to 58 °C.
Work on `COC(=O)c1cc(Cl)cc2c1OC(C)(C)C(=O)N2` yielded a melting point of 178 to 179 °C.
Work on `CCCCc1nc2cncnc2[nH]1` yielded a melting point of 168 °C.
With `COC(=O)c1ccc(S(=O)(=O)C(Cn2ccnc2)c2ccccc2OC)cc1` (stereo not given) the melting point was 150 to 151 °C.
`CC(C)(C)c1cc(C(=O)c2cc[nH]n2)cc(C(C)(C)C)c1O` gave a melting point of 216 to 219 °C.
Molecule `C=CCCCCCCCCCOc1ccc(-c2ccc(OCCCCCCCCCCCBr)cc2)cc1` has a melting point of 93 to 94 °C.
Work on `CC(C)(C#N)c1ccc(C(=O)C2CC2)cc1` yielded a melting point of 80 to 82 °C.
`Cc1ccc(C2c3c(C)c(N4CCN(c5ccc(C(F)(F)F)cc5)CC4)c(C)c(C)c3OC2(C)C)cc1` (stereo not given) gave a melting point of 180 to 181 °C.
In the case of `O=C(CCCCC1CCSS1)NC(Cc1c[nH]cn1)C(=O)O` (stereo not given), the melting point is reported as 122 to 126 °C.
`CC(C)(NC(=O)C1=C(C(=O)Nc2cc(OC3CCCC3)c(Cl)cc2F)CCCC1)c1cccc(Cl)c1` showed a melting point of 222 to 226 °C.
`OCc1csc(N2CCCCC2)n1` showed a melting point of 89 to 90 °C.
Molecule `CC=CC(=O)c1c(CCC)[nH]c2cc(C(=O)OC)ccc12` has a melting point of 153 to 154 °C.
In the case of `Cc1nc(N)nc(N)c1-c1ccc([N+](=O)[O-])c(Cl)c1Cl`, the melting point is reported as 265 °C.
`O=c1nc(-c2ccccn2)sc2ccc(OCc3ccccc3)cc12` showed a melting point of 198 to 199 °C.
With `COc1ccc(Sc2c(O)c3c(Cl)cc(Cl)cc3[nH]c2=O)cc1` the melting point was 280 to 282 °C.
For `Cc1cn([C@H]2CC[C@@H]3CC(=O)N[C@H]2C3)c(=O)n(COCc2ccccc2)c1=O`, the melting point was 160 to 162 °C.
`C(=C\c1nc(COc2ccc(CCCCCn3cncn3)cc2)co1)/c1ccccc1` gave a melting point of 103 to 104 °C.
In the case of `CC(C)(C)OC(=O)NCCCCC(=O)N1CCC(c2[nH]nc3c2C(=O)c2c(NC(=O)NN4CCOCC4)cccc2-3)CC1`, the melting point is reported as 98 to 99 °C.
Molecule `O=C(CCCN1CCOCC1)c1ccc2c(c1)Cc1cc(C(=O)CCCN3CCOCC3)ccc1O2` has a melting point of 110 to 112 °C.
Molecule `CC(C)(C)c1cc(O)cc(C(C)(C)C)c1C=C1SC(NCO)=NC1=O` has a melting point of 177 to 179 °C.
`CCOC(=O)c1ccc(C=C2C=CN(CC)c3ccccc32)c([N+](=O)[O-])c1` gave a melting point of 100 °C.
In the case of `CC(C)OC(=O)CC1SCN(c2ccc(Cl)c(Cl)c2)C1=O` (stereo not given), the melting point is reported as 54 to 56 °C.
`C=CCON=C(CCC)C1=C(O)CC(c2ccc(OC)c(NC(C)=O)c2)CC1=O` (stereo not given) gave a melting point of 136 to 137 °C.
`O=C(N[C@@H](Cc1ccccc1)[C@@H](O)[C@H](O)[C@H](Cc1ccccc1)NC(=O)OCc1ccccc1)OCc1ccccc1` showed a melting point of 215 to 216 °C.
Molecule `Cc1nc(Br)c(C=O)n1Cc1cc2c(cc1Cl)OCO2` has a melting point of 141 °C.
Molecule `O=C(O)CCNC(=O)[C@H](Cc1ccccc1)OP(=O)(O)CCCCc1ccccc1` has a melting point of 78.5 to 80 °C.
Work on `COC(=O)C(C)c1ccc(-c2ccccc2[N+](=O)[O-])cc1` (stereo not given) yielded a melting point of 83 to 86 °C.
Work on `COc1ccc2ccccc2c1CN1CCC(=O)C(C(c2ccc(F)cc2)c2ccc(F)cc2)C1` (stereo not given) yielded a melting point of 125 to 126 °C.
In the case of `Cc1csc(COc2nn3c(-c4ccccc4)nnc3cc2-c2ccccc2)n1`, the melting point is reported as 177 °C.
With `O=C(O)CC12CC3CC(CC(Cl)(C3)C1)C2` the melting point was 182 to 184 °C.
Molecule `C=C(CCCCCCCCCCCCCC)C(=O)O` has a melting point of 49.5 to 50 °C.
Molecule `CC(C)(C)NC(=O)N1CC(Oc2ccc(C(F)(F)F)cc2)C1` has a melting point of 145 to 146 °C.
Work on `CC#CCOc1ccc(S(=O)(=O)NC2(C(=O)O)CCCC2)cc1` yielded a melting point of 108 to 110 °C.
`CN(C)CCC=Cc1ccc2c(c1)CCCN2C(=O)c1ccc(-c2ccc(Cl)cc2)cc1` showed a melting point of 142 to 144 °C.
For `CCOC(=O)c1c(C=O)c2ccc3sc4ccccc4c3c2n1C`, the melting point was 145 to 147 °C.
In the case of `COc1cc(OC)c2c(=O)cc(-c3cc[nH]n3)oc2c1`, the melting point is reported as 197 to 198 °C.
`Cc1ccc(C2(Cn3cncn3)OCCO2)cc1Br` gave a melting point of 121 °C.
`CC(=O)SCC12CCC3(CC1=CCC1C2CCC2(C)C(C(C)=O)CCC12)OCCO3` (stereo not given) showed a melting point of 151 to 153 °C.
For `Cc1ccccc1NC(=O)N[C@H]1C[C@@](N)(C(=O)O)[C@@H]2[C@@H](C(=O)O)[C@@H]21` (relative stereo), the melting point was > 250 °C.
Work on `CCOC(=O)CN(c1ccc(Cl)cc1C(O)c1ccccc1Cl)S(=O)(=O)c1ccc(OC)c(OC)c1` (stereo not given) yielded a melting point of 86 °C.
`CCOC(=O)C(N=Nc1ccc(Br)cc1C(=O)c1ccccn1)NC(=O)CCl` (stereo not given) showed a melting point of 160 to 162 °C.
With `Cc1cc(C(=O)O)n(-c2ncc(Cl)cc2Cl)n1` the melting point was 227 to 228 °C.
`FC(F)(F)c1cccc(-c2cnn(-c3cccnc3)c2)n1` showed a melting point of 130 to 131 °C.
`COc1ccc2cc(-c3nccn3C)ccc2n1` gave a melting point of 116 to 118 °C.
`CC(=O)Nc1ccc(C)cc1Oc1c([N+](=O)[O-])cc(C(=O)O)cc1S(N)(=O)=O` showed a melting point of 238 to 240 °C.
With `O=Cc1ccc2c(ccc3c4ccccc4ccc23)c1` the melting point was 215 to 216 °C.
Molecule `CCC1(C)CC(O)C2(C)CCC3c4ccc(OC)cc4CCC3C12` (stereo not given) has a melting point of 133 to 136 °C.
`CC(C)CNc1cc(C(=O)O)cc(S(N)(=O)=O)c1Sc1ccc(N)cc1` gave a melting point of 250 to 252 °C.
For `Cn1c(=O)n(-c2cc(N)c(Cl)cc2F)c(=S)n1C`, the melting point was 208 °C.
In the case of `Cc1csc(N)c1S(N)(=O)=O`, the melting point is reported as 142 to 144 °C.
With `CCOC(=O)c1ccc(NC(=N)c2ccc(OC)cc2)cc1` the melting point was 128 to 132 °C.
Molecule `COC(=O)Nc1ccc(C2=NNC(=O)CC2C)cc1` (stereo not given) has a melting point of 228 to 229 °C.
For `O=C(O)C1(c2ccc(CN3CCN(c4ccc(F)cc4F)CC3)cc2)CC1`, the melting point was 70 to 74 °C.
`CCN(CC)C(=O)OCC1CN(C(=S)c2cc(OC)c(OC)c(OC)c2)CCN1C(=O)c1cc(OC)c(OC)c(OC)c1` (stereo not given) showed a melting point of 106 °C.
For `CCn1cc(C(=O)NN)c(=O)c2ccc(-c3ccncc3)cc21`, the melting point was 274 to 275 °C.
`COc1ccc(-c2cnc(SC(F)(F)C(F)F)nc2-c2ccc(OC)cc2)cc1` showed a melting point of 118 to 120 °C.
In the case of `CCCOc1ccccc1C1=NC(=O)C2=NC(c3ccccc3)=NC2=N1`, the melting point is reported as 259 to 260 °C.
Work on `O=[PH](O)Cc1cccc(P(c2ccccc2)c2ccccc2)c1` yielded a melting point of 173 °C.
`CC(C#N)c1cccc2c(-c3ccccc3)onc12` (stereo not given) showed a melting point of 109 to 112 °C.
`Clc1cc2nc(Cl)c(I)n2cc1Cl` gave a melting point of 215 to 216 °C.
`CCOC(=O)c1cn(Cc2ccc(OCc3ccccc3)cc2)nc1-c1ccc(F)cc1` gave a melting point of 103 to 104 °C.
With `CCOC(=O)c1ccc2c(cnn2CCC#N)c1` the melting point was 106 to 109 °C.
`O=C(O)CS(=O)(=O)c1ccc2c(-c3ccccc3F)noc2c1` gave a melting point of 168 to 169 °C.
`Clc1ccccc1C1=NOCCS1` showed a melting point of 51 to 52 °C.
For `Cc1c(C(=O)O)sc(=O)c2ccccc12`, the melting point was 243 to 245 °C.
Molecule `OCc1nnc2ccc(-c3cccc(C(F)(F)F)c3)nn12` has a melting point of 224 to 226 °C.
In the case of `CC1CN(c2ccc(S(N)(=O)=O)cc2)CC(C)N1CCC1OCCc2ccccc21` (stereo not given), the melting point is reported as 170 to 175 °C.
`CCN(SCc1nccs1)C(=C[N+](=O)[O-])SC` gave a melting point of 63 to 64 °C.
